Test results reported in patent US20220112165A1, “PEGYLATED PRODRUGS OF PHENOLIC TRPV1 AGONISTS” (priority 2018, published 2022).
Read-outs that look alike come from different tables or passages of the source.

Test: In vitro (pH stability) assay: intramolecular cyclization-release of capsaicin from the prodrug in buffer
Type: physicochemical
Conditions: for stability at pH 4.5 at room temperature in comparison to the non-acylated prodrug (compound 6): pH 4.5, RT
Method: The compounds described herein are examples of pH activated prodrugs whereby upon exposure to a specific pH, the half-life of the intramolecular cyclization-release reaction is determined. The intramolecular cyclization-release reaction results in the concomitant formation of a cyclic urea with the release of the parent drug.
Compounds were incubated in the buffer/biological media indicated. The reactions were conducted at either room temperature or 37° C. In some embodiments, additional common ingredients/formulations which may be used in buffers for the testing of the cyclization-release of the compounds described herein include but are not limited to: N-(2-Acetamido)-2-aminoethanesulfonic acid, N-(2-Acetamido)iminodiacetic acid, 2-Amino-2-methyl-1,3-propanediol, salts of bicarbonate, N,N-Bis(2-hydroxyethyl)glycine, 2-Bis(2-hydroxyethyl)amino-2-(hydroxymethyl)-1,3-propanediol, 3-(Cyclohexylamino)-1-propanesulfonic acid, 2-(Cyclohexylamino)ethanesulfonic acid, salts of carbonate, salts of citrate, 4-(2-Hydroxyethyl)-1-piperazinepropanesulfonic acid, salts of glycine, salts of Glycyl-glycine, 4-(2-Hydroxyethyl)piperazine-1-ethanesulfonic acid, 4-Morpholineethanesulfonic acid, 4-Morpholinepropanesulfonic acid, 1,4-Piperazinediethanesulfonic acid, salts of phosphate, salts of tartrate, 2-[(2-Hydroxy-1,1-bis(hydroxymethyl)ethyl)amino]ethanesulfonic acid, Tris(2-hydroxyethyl)amine, and salts of EDTA.
Samples were collected at specific time points, quenched with a 1.0% TFA in acetonitrile solution to stop the cyclization-release reaction and analyzed by HPLC for formation of released capsaicin, cyclic urea by-product, and consumption of starting compound in plasma and cerebrospinal fluid (CSF).

[1] = buffer (simulated physiological conditions), simulated physiological conditions, pH 7.4 & 37° C., read-out: half-life of conversion to capsaicin
[2] = pH = 4.5 (0.1M aqueous sodium acetate buffer), RT, read-out: Intramolecular Cyclization-Release Half-life (T1/2) at pH 4.5 & RT (converted)
[3] = pH = 7.4 (0.2M aqueous tris buffer), 37° C., read-out: Intramolecular Cyclization-Release Half-life (T1/2) at pH 7.4 & 37° C.

| SMILES | half-life [1] [min] | stability at pH 4.5 at room temperature in comparison to the non-acylated prodrug (compound 6) | half-life [2] [min] | half-life [3] [min] |
| --- | --- | --- | --- | --- |
| CCOC(=O)N1CCN(C(=O)Oc2ccc(CNC(=O)CCCC/C=C/C(C)C)cc2OC)C(CNC)C1 (stereo not drawn) [Compound 8, (E)-4-ethyll-(2-methoxy-4-((8-methylnon-6-enamido)methyl)phenyl) 2-((methylamino)methyl)piperazine-1,4-dicarboxylate] | < 5 | significant and unexpected increase in stability | 2770 | ~1.3 |
| CNCC1CN(C(=O)CCOCCOCCOCCOCCOCCOCCOCCOCCOCCOC)CCN1C(=O)Oc1ccc(CNC(=O)CCCC/C=C/C(C)C)cc1OC (stereo not drawn) [Compound 3, (E)-2-methoxy-4-((8-methylnon-6-enamido)methyl)phenyl 4-(2,5,8,11,14,17,20,23,26,29-decaoxadotriacontan-32-oyl)-2-((methylamino)methyl)piperazine-1-carboxylate] | < 5 | significant and unexpected increase in stability | 3060 | ~0.8 |
| CNCC1CN(C(=O)CCOCCOCCOCCOCCOCCOCCOCCOCCOCCOCCOCCOCCOC)CCN1C(=O)Oc1ccc(CNC(=O)CCCC/C=C/C(C)C)cc1OC (stereo not drawn) [Compound 4, (E)-2-methoxy-4-((8-methylnon-6-enamido)methyl)phenyl 4-(2,5,8,11,14,17,20,23,26,29,32,35,38-tridecaoxahentetracontan-41-oyl)-2-((methylamino)methyl)piperazine-1-carboxylate] | < 5 | – | – | ~0.6 |
| CNCC1CN(C(C)=O)CCN1C(=O)Oc1ccc(CNC(=O)CCCC/C=C/C(C)C)cc1OC (stereo not drawn) [Compound 7, (E)-2-methoxy-4-((8-methylnon-6-enamido)methyl)phenyl 4-acetyl-2-((methylamino)methyl)piperazine-1-carboxylate] | < 5 | significant and unexpected increase in stability | 6930 | ~0.9 |
| CNCC1CN(C)CCN1C(=O)Oc1ccc(CNC(=O)CCCC/C=C/C(C)C)cc1OC (stereo not drawn) [Compound 6, (E)-2-methoxy-4-((8-methylnon-6-enamido)methyl)phenyl 4-methyl-2-((methylamino)methyl)piperazine-1-carboxylate] | < 5 | – | 78 | ~0.8 |
| CNCC1CN(C(=O)CCOCCOCCOCCOCCOCCOCCOC)CCN1C(=O)Oc1ccc(CNC(=O)CCCC/C=C/C(C)C)cc1OC (stereo not drawn) [Compound 2, (E)-2-methoxy-4-((8-methylnon-6-enamido)methyl)phenyl 2-((methylamino)methyl)-4-(2,5,8,11,14,17,20-heptaoxatricosan-23-oyl)piperazine-1-carboxylate] | < 5 | significant and unexpected increase in stability | 2450 | ~0.7 |
| CNCC1CNCCN1C(=O)Oc1ccc(CNC(=O)CCCC/C=C/C(C)C)cc1OC (stereo not drawn) [Compound 5] | < 5 | – | – | ~0.4 |
| CNCC1CN(C(=O)CCOCCOCCOCCOC)CCN1C(=O)Oc1ccc(CNC(=O)CCCC/C=C/C(C)C)cc1OC (stereo not drawn) [Compound 1, (E)-2-methoxy-4-((8-methylnon-6-enamido)methyl)phenyl 2-((methylamino)methyl)-4-(2,5,8,11-tetraoxatetradecan-14-oyl)piperazine-1-carboxylate] | < 5 | significant and unexpected increase in stability | 2600 | ~0.8 |
